According to patent US20080132505A1 (Glaxo Group Limited, priority 2004, published 2008):

What was measured:
[1] = molecular target: human cannabinoid CB2 receptor (Homo sapiens, UniProt P34972); test: Cannabinoid CB2 receptor agonist activity (yeast reporter assay, FDGlu fluorescence); format: cell-based; details: for EC50: EC50 value at the cloned human cannabinoid CB2 receptor; for Emax: read-out: efficacy value (Emax relative to HU210) at the cloned human cannabinoid CB2 receptor
Outline: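 S. cerevisiae MMY23 expressing human CB2 with a Gpa1/Gαi3 chimeric G-protein, grown 24 h at 30 °C with agonist (1% DMSO) in selective media containing 10 mM 3-aminotriazole and FDGlu, pH 7.0. Fluorescein fluorescence (485/535 nm) fitted by four-parameter curve; Emax and EMR relative to HU210.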

[2] = Particle size analysis (Lecotrac laser particle size analyser) pre and post nanomilling; format: physicochemical
Method: 2.5 g of compound of example 176 was weighed into a 10 ml centrifuge tube. 25 ml of 0.3 mm yttrium zirconium (YTZ) ceramic milling beads (Manufacturer: Tosob, Japan; Supplier: Glen Creston Ltd., batch no. 5280130030)”) was weighed into a 50 ml milling pot. 22.5 ml of aqueous 1.5% HPMC was measured with a measuring cylinder into a 100 ml beaker. This solution was homogenised for 3 seconds with an Ultra Turrax T25 homogeniser. Approximately 200 mg of the 2.5 g of the compound was added to the HPMC solution and homogenised at the lowest speed setting until the powder was wetted. This was repeated until all the compound had been added. The speed of the homogeniser was then increased to maximum and the suspension was homogenised for a further 3 minutes. This suspension was allowed to stand for 30 minutes in order to allow some of the foam to disperse. The suspension was then poured into the 50 ml pot containing the YTZ milling beads, stirring to release any trapped air. The lid to the pot was then fitted and the pot sealed with some Nesco film. This procedure was repeated for a second 50 ml nanomilling pot and both pots were placed on a Retsch mill and milled for a total of 8 hours.
The milling pots were removed from the Retsch mill and left to cool and for the foam to disperse overnight. In the morning the suspension and bead mixture was passed through a 200μ, 40 mm diameter screen. The contents from each 50 ml pot was washed with aqueous 1.5% HPMC: 10% of the original suspension volume (i.e. 2.5 ml). The suspension from the 2 pots was combined to make 1 batch. The suspension obtained from the method above was named the concentrate.
A particle size analysis was carried out on the Lecotrac laser particle size analyser. The results are shown in Table B along with the results from the starting material for comparison:
Compounds of Examples 19, 34, 194, 217, 228, 247 were nanomilled on a 1 g scale using the process described above and the particle size analysed pre and post nanomilling.

[3] = Table C, after nanomilling, 1 g scale
[4] = Table C, before nanomilling, 1 g scale
[5] = Table B, after 8 hours milling in aqueous 1.5% HPMC, 2.5 g per pot
[6] = Table B, starting material before nanomilling, Lecotrac laser particle size analyser

human cannabinoid CB2 receptor, sequence (P34972 whole entry): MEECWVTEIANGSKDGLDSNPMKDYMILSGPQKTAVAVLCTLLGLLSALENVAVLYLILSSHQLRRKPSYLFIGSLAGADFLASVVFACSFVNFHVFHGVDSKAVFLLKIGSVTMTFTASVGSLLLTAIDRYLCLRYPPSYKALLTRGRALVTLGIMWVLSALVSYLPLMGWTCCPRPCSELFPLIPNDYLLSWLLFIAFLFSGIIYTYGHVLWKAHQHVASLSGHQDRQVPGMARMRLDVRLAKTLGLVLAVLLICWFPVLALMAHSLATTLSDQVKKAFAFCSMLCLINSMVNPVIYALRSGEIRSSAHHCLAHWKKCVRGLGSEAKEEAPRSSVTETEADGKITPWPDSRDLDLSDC

| SMILES | EC50 [1] | Emax [1] | Post-nanomilling 50% percentile [2, 3] | Post-nanomilling 95% percentile [2, 3] | Pre-nanomilling 50% percentile [2, 4] | Pre-nanomilling 95% percentile [2, 4] | also measured |
| --- | --- | --- | --- | --- | --- | --- | --- |
| O=C(NCC1CCCCC1)c1cnc(Nc2cccc(F)c2)nc1C(F)(F)F [Example 19, 2-(3-Fluorophenylamino)-4-trifluoromethylpyrimidine-5-carboxylic acid cyclohexylmethyl-amide] | 20 to 300 nM | > 50% | 0.40 μ | 1.40 μ | 5.22 μ | 25.5 μ | – |
| O=C(NCC1CCOCC1)c1cnc(Nc2ccc(Cl)cc2Cl)nc1C(F)(F)F [Example 34, 2-(2,4-Dichlorophenylamino)-4-trifluoromethylpyrimidine-5-carboxylic acid (tetrahydropyran-4-ylmethyl)-amide] | 20 to 300 nM | > 50% | 0.18 μ | 0.56 μ | 10.46 μ | 32.7 μ | – |
| N#Cc1ccc(Nc2ncc(C(=O)NCC3CCCC3)c(C(F)(F)F)n2)cc1 [Example 176, 2-(4-Cyanophenylamino)-4-trifluoromethyl-pyrimidine-5-carboxylic acid cyclopentylmethyl-amide] | 20 to 300 nM | > 50% | – | – | – | – | Post-nanomilling 50% percentile [2, 5]: 0.33 μ; Post-nanomilling 95% percentile [2, 5]: 1.78 μ; Pre-nanomilling 50% percentile [2, 6]: 13.15 μ; Pre-nanomilling 95% percentile [2, 6]: 68.7 μ |
| O=C(NCC1CCC1)c1cnc(Nc2ccc(F)c(Cl)c2)nc1C(F)(F)F [Example 194, 2-(3-Chloro-4-fluorophenylamino)-4-trifluoromethyl-pyrimidine-5-carboxylic acid cyclobutylmethyl-amide] | 20 to 300 nM | > 50% | 0.56 μ | 1.97 μ | 6.78 μ | 33.7 μ | – |
| N#Cc1ccc(Nc2ncc(C(=O)NCC3CCOCC3)c(C(F)(F)F)n2)cc1Cl [Example 217, 2-(4-Cyano-3-chloro-phenylamino)-4-trifluoromethyl-pyrimidine-5-carboxylic acid (tetrahydro-pyran-4-ylmethyl)-amide] | 20 to 300 nM | > 50% | 0.34 μ | 1.30 μ | 5.70 μ | 34.9 μ | – |
| O=C(NCC1CCC1)c1cnc(Nc2ccc(Cl)cc2F)nc1C(F)(F)F [Example 228, 2-(2-Fluoro-4-chloro-phenylamino)-4-trifluoromethyl-pyrimidine-5-carboxylic acid cyclobutylmethyl-amide] | 20 to 300 nM | > 50% | 0.44 μ | 1.69 μ | 4.65 μ | 47.1 μ | – |
| O=C(NCC1CCCC1)c1cnc(Nc2ccc(F)c(Cl)c2)nc1C(F)(F)F [Example 247, 2-(3-Chloro-4-fluoro-phenylamino)-4-trifluoromethyl-pyrimidine-5-carboxylic acid cyclopentylmethyl-amide] | 20 to 300 nM | > 50% | 0.64 μ | 2.53 μ | 13.2 μ | 68.7 μ | – |
| O=C(NCc1ccc(F)cc1)c1cnc(Nc2ccc(Cl)c(Cl)c2)nc1C(F)(F)F [Example 367, 2-(3,4-Dichloro-phenylamino)-4-trifluoromethyl-pyrimidine-5-carboxylic acid 4-fluoro-benzylamide] | 20 to 300 nM | – | – | – | – | – | – |
| O=C(NCc1ccc(F)cc1F)c1cnc(Nc2cccc(Cl)c2)nc1C(F)(F)F [Example 368, 2-(3-Chloro-phenylamino)-4-trifluoromethyl-pyrimidine-5-carboxylic acid 2,4-difluoro-benzylamide] | 20 to 300 nM | – | – | – | – | – | – |
| O=C(NCc1ccc(F)cc1)c1cnc(Nc2ccc(C(F)(F)F)c(F)c2)nc1C(F)(F)F [Example 369, 2-(3-Fluoro-4-trifluoromethyl-phenylamino)-4-trifluoromethyl-pyrimidine-5-carboxylic acid 4-fluoro-benzylamide] | 20 to 300 nM | – | – | – | – | – | – |
| CC(C)c1cc(Nc2cccc(C(F)(F)F)c2)ncc1C(=O)NCc1ccc(F)cc1 [Example 393, N-(4-Fluoro-benzyl)-4-isopropyl-6-(3-trifluoromethyl-phenylamino)-nicotinamide] | – | > 50% | – | – | – | – | – |
| Cc1cccc(Nc2cc(C(C)C)c(C(=O)NCc3ccc(F)cc3)cn2)c1C#N [Example 395, 6-(2-Cyano-3-methyl-phenylamino)-N-(4-fluoro-benzyl)-4-isopropyl-nicotinamide] | – | > 50% | – | – | – | – | – |
| O=C(NCc1ccncc1)c1ccc(Nc2cccc(Cl)c2)nc1C(F)(F)F [Example 457, 6-(3-Chloro-phenylamino)-N-(pyridin-4-ylmethyl)-2-trifluoromethyl-nicotinamide] | – | > 50% | – | – | – | – | – |
| O=C(NCC1CCOCC1)c1ccc(Nc2cccc(Cl)c2)nc1C(F)(F)F [Example 662, 6-(3-Chloro-phenylamino)-N-(tetrahydro-pyran-4-ylmethyl)-2-trifluoromethyl-nicotinamide] | – | > 50% | – | – | – | – | – |
| CC(C)c1cc(Nc2cc(Cl)ccc2C#N)ncc1C(=O)NCC1CCOCC1 [Example 679, 6-(5-Chloro-2-cyano-phenylamino)-4-isopropyl-N-(tetrahydro-pyran-4-ylmethyl)-nicotinamide] | – | < 30% | – | – | – | – | – |
| CC(C)c1cc(Nc2cccc(Cl)c2)ncc1C(=O)NCC1CCS(=O)(=O)C1 (stereo not shown) [Example 681, 6-(3-Chloro-phenylamino)-N-(1,1-dioxo-tetrahydro-1l^6-thiophen-3-ylmethyl)-4-isopropyl-nicotinamide] | – | > 50% | – | – | – | – | – |
| CC(C)c1cc(Nc2cccc(OC(F)(F)F)c2)ncc1C(=O)NCC1CCC1 [Example 682, N-Cyclobutylmethyl-4 isopropyl-6-(3-trifluoromethoxy-phenylamino)-nicotinamide] | – | > 50% | – | – | – | – | – |
| CC(C)c1cc(Nc2ccc(C#N)cc2F)ncc1C(=O)NCC1CCCC1 [Example 751, 6-(4-Cyano-2-fluoro-phenylamino)-N-cyclopentylmethyl-4-isopropyl-nicotinamide] | – | > 50% | – | – | – | – | – |
| CC(C)c1cc(Nc2ccc(Br)c(C(F)(F)F)c2)ncc1C(=O)NCC1CCOCC1 [Example 752, 6-(4-Bromo-3-trifluoromethyl-phenylamino)-4-isopropyl-N-(tetrahydropyran-4-ylmethyl)-nicotinamide] | 300 to 1000 nM | > 50% | – | – | – | – | – |
